Data from ChEMBL document CHEMBL4627289, “Design, synthesis and evaluation of unnatural peptides as T1R2/T1R3 PAMs” (Bioorg Med Chem Lett, 2020).

Target: T1R2/T1R3 (Homo sapiens) (UniProt Q8TE23+Q7RTX0)
Assay: Positive allosteric modulation of human TIR2/TIR3 expressed in PEAKrapid cells assessed as potentiation of sucrose-induced intracellular calcium influx by measuring sucrose EC50 at 30 uM measured for 120 secs by fluorescence based assay relative to FEMA4774
Assay type: functional, cell-based

SMILES | Efficacy
CC(C)(CC(=O)Nc1cncc(C(=O)O)c1N)NC(=O)[C@@H](N)C1CCCCC1 | 96%
CC(C)(CC(=O)Nc1cncc(C(=O)O)c1N)NC(=O)c1cccc(N)c1 | 56%
CC(C)(CC(=O)Nc1cncc(C(=O)O)c1N)NC(=O)C1(c2ccccc2)CC1 | 54%
CC(C)(CC(=O)Nc1cncc(C(=O)O)c1N)NC(=O)c1ccccc1 | 50%
CC(C)(CC(=O)Nc1cncc(C(=O)O)c1N)NC(=O)[C@@H](N)c1ccccc1 | 61%
CCCCCCCC/C=C\CCCCCCCC(=O)NC(C)(C)CC(=O)Nc1cncc(C(=O)O)c1N | 55%
CCCCCCCCCCCC(=O)NC(C)(C)CC(=O)Nc1cncc(C(=O)O)c1N | 50%
CC[C@H](C)[C@H](NC(=O)[C@@H](NC(=O)OC(C)(C)C)C1CCCCC1)C(=O)NC(C)(C)CC(=O)Nc1cncc(C(=O)O)c1N | 84%
CC(C)(CC(=O)Nc1cncc(C(=O)O)c1N)NC(=O)c1ccc(N)cc1 | 56%
CC[C@H](C)[C@H](NC(=O)[C@@H](N)C1CCCCC1)C(=O)NC(C)(C)CC(=O)Nc1cncc(C(=O)O)c1N | 76%
CC(C)(CC(=O)Nc1cncc(C(=O)O)c1N)NC(=O)C1(N)CCCCC1 | 59%
CC(C)C[C@H](NC(=O)[C@@H](N)C1CCCCC1)C(=O)NC(C)(C)CC(=O)Nc1cncc(C(=O)O)c1N | 77%
CC(C)C[C@H](NC(=O)[C@@H](NC(=O)OC(C)(C)C)C1CCCCC1)C(=O)NC(C)(C)CC(=O)Nc1cncc(C(=O)O)c1N | 85%
CC(C)(CC(=O)Nc1cncc(C(=O)O)c1N)NC(=O)[C@H]1CC[C@H](N)CC1 | 55%
CC(C)(CC(=O)Nc1cncc(C(=O)O)c1N)NC(=O)[C@H](N)C1CCCCC1 | 59%
CC(C)(CC(=O)Nc1cncc(C(=O)O)c1N)NC(=O)[C@@H](NC(=O)[C@@H](N)C1CCCCC1)C1CCCCC1 | 92%
CC(C)(CC(=O)Nc1cncc(C(=O)O)c1N)NC(=O)c1cccc2c1CCCC2 | 73%
CC(C)(CC(=O)Nc1cncc(C(=O)O)c1N)NC(=O)[C@@H](N)CC1CCCCC1 | 57%
CC(C)(CC(=O)Nc1cncc(C(=O)O)c1N)NC(=O)[C@@H]1CCC[C@H](N)C1 | 57%
CC(C)(CC(=O)Nc1cncc(C(=O)O)c1N)NC(=O)[C@H]1CC[C@@H](N)CC1 | 58%
CC(C)(CC(=O)Nc1cncc(C(=O)O)c1N)NC(=O)CC[C@@H](N)Cc1ccccc1 | 54%

Second part, the molecule after the results:

Efficacy | SMILES
57% | CCCCCCCC(=O)NC(C)(C)CC(=O)Nc1cncc(C(=O)O)c1N
61% | CC(C)[C@H](N)C(=O)NC(C)(C)CC(=O)Nc1cncc(C(=O)O)c1N
55% | CC(C)(CC(=O)Nc1cncc(C(=O)O)c1N)NC(=O)C1CCNC1 (centres undefined)
52% | CC(C)(CC(=O)Nc1cncc(C(=O)O)c1N)NC(=O)C[C@H]1CCNC1
56% | CC(C)(CC(=O)Nc1cncc(C(=O)O)c1N)NC(=O)C1CCNCC1
58% | CC(C)(CC(=O)Nc1cncc(C(=O)O)c1N)NC(=O)C(C)(C)C
64% | CC(C)(C)CC(=O)NC(C)(C)CC(=O)Nc1cncc(C(=O)O)c1N
80% | CC(C)(CC(=O)Nc1cncc(C(=O)O)c1N)NC(=O)CC1(CN)CCCCC1
65% | CCCCCC(=O)NC(C)(C)CC(=O)Nc1cncc(C(=O)O)c1N
56% | CC(C)(CC(=O)Nc1cncc(C(=O)O)c1N)NC(=O)C[C@@H]1CCNC1
71% | CC(C)(CC(=O)Nc1cncc(C(=O)O)c1N)NC(=O)C1CCCCC1
65% | CC(C)(CC(=O)Nc1cncc(C(=O)O)c1N)NC(=O)CCC1CCCCC1
60% | CC(C)CC(=O)NC(C)(C)CC(=O)Nc1cncc(C(=O)O)c1N
85% | CC(C)(CC(=O)Nc1cncc(C(=O)O)c1N)NC(=O)CC1CCCCC1
79% | CC(C)(CC(=O)Nc1cncc(C(=O)O)c1N)NC(=O)CC1CCCC1
59% | CCCCCCC(=O)NC(C)(C)CC(=O)Nc1cncc(C(=O)O)c1N
54% | CC(C)C(=O)NC(C)(C)CC(=O)Nc1cncc(C(=O)O)c1N
73% | CC(C)C[C@H](N)C(=O)NC(C)(C)CC(=O)Nc1cncc(C(=O)O)c1N
